The values below come from PMC9176744 (Science Advances, 2022).

pIC50: −log10 of the molar value.

Test [1] addresses T1, DHS1^WT (Arabidopsis thaliana, UniProt P29976). In words: DHS enzyme assay. The format is biochemical. The note with it: for inhibition of DHS1 activity: screening of AAA-derived metabolites as potential inhibitors (Fig. 2D); for pIC50: recombinant DHS1^WT, varied effector concentrations.
Test [2] has as its target T2, DHS2^WT (Arabidopsis thaliana, UniProt Q00218). The note with it: shown previously; cited from earlier work.
The subject of test [3] is DHS2^A4. The test can be described thus: DHS enzyme assay, DHS2 with the sotaA4 mutation. The note with it: for inhibition of DHS2^A4: similar IC50 values to DHS2^WT; for inhibition of DHS2^A4 activity: concentration of up to 1 mM.
Test [4] concerns DHS2^F1. The test can be described thus: DHS enzyme assay, DHS2 with the sotaF1 mutation. The note with it: concentration of up to 1 mM.
The subject of test [5] is DHS2^A11. In words: DHS enzyme assay, DHS2 with the sotaA11 mutation. The note with it: for inhibition of DHS2^A11 activity: concentration of up to 1 mM; for change in IC50 versus corresponding WT enzyme: DHS2^A11, the weakest sota allele.
Test [6] has as its target T2, DHS2^WT. In words: DHS enzyme assay. The format is biochemical. As to conditions: for inhibition at 1000 µM: read-out: inhibition of DHS2; for inhibition of DHS2 activity: screening of AAAs and AAA-derived metabolites as potential inhibitors (Fig. 2D); for pIC50: recombinant DHS2^WT, varied effector concentrations.
For test [7], the system named is DHS1^B4. In words: DHS enzyme assay, DHS1 with the sotaB4 mutation. As to conditions: comparable IC50 values to DHS1^WT. The format is biochemical, Arabidopsis thaliana.
For test [8], the target named is T1, DHS1^WT. As to conditions: shown previously; cited from earlier work.
Test [9] concerns DHS3 (DHS^WT isoform). The note with it: shown previously; cited from earlier work.
Test [10] concerns DHS3 (DHS^WT isoform). In words: DHS enzyme assay. The format is biochemical, Arabidopsis thaliana. The note with it: for inhibition of DHS3 WT activity: all DHS^WT isoforms.
Test [11] relates to sota mutants (DHS enzymes). The test can be described thus: DHS enzyme assay, sota mutant enzymes compared with corresponding WT enzymes. The format is biochemical, Arabidopsis thaliana. As to conditions: nearly all of the sota mutants; maximum increase.
For test [12], the system named is Arabidopsis plants (Col-0, sotaB4, sotaA4). In words: Plant growth on media containing the effector.
Setting [13] is: ILA feeding, media with 0, 250, 500 or 1000 μM, 3-week-old plants, fresh weight.

T1 sequence (P29976 49-525): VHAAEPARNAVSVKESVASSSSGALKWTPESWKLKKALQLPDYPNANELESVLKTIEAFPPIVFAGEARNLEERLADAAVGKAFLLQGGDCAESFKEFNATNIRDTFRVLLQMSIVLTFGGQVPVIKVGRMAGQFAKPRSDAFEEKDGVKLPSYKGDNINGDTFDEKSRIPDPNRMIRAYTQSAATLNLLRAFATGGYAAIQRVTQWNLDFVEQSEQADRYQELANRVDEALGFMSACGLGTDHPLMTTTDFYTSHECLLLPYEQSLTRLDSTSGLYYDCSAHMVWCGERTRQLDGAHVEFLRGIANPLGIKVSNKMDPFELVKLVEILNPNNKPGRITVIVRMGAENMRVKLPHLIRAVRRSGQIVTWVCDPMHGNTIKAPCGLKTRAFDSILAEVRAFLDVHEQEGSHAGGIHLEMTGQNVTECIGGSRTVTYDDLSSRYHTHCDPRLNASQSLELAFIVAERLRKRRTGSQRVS
T2 sequence (Q00218 34-507): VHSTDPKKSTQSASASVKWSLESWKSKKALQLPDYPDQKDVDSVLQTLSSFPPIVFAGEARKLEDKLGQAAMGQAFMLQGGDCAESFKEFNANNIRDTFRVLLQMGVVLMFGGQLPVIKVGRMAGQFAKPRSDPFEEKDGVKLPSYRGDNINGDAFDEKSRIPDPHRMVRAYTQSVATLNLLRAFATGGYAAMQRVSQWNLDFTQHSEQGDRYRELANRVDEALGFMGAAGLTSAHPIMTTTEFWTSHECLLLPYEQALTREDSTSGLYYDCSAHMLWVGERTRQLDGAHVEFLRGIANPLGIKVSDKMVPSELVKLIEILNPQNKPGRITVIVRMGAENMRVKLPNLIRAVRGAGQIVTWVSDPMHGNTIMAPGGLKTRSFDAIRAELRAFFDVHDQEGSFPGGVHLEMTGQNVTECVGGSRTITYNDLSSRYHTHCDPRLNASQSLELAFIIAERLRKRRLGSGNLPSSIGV

`O=C(O)C(=O)Cc1ccccc1` [PPY, phenylpyruvate]: the “inhibition of DHS1 activity” value in test [1] is listed as “neither”.
As for `N[C@@H](CC1(C(=O)O)C=CC(O)C=C1)C(=O)O` (stereo partly shown) [arogenate], in [2], the “inhibition of DHS2” value is “slightly inhibit”. Also, the “inhibition of DHS2^A4” value in test [3] is “still inhibited”.
With `N[C@@H](Cc1c[nH]c2ccccc12)C(=O)O` [Trp, tryptophan], the “inhibition of DHS2” value in [2] was “inhibit”. Also, in [3], the “inhibition of DHS2^A4 activity” value is recorded as “not inhibited”. In test [4], the “inhibition of DHS2^F1 activity” value is “not inhibited”. Also, in test [5], the “inhibition of DHS2^A11 activity” value is given as “not inhibited”.
Consider `O=C(O)C(=O)CC1(C(=O)O)C=CC(O)C=C1` (stereo not shown) [prephenate], for which the “inhibition of DHS2” value in test [2] is recorded as “slightly inhibit”. Besides, in test [3], the “inhibition of DHS2^A4” value is “still inhibited”.
For orientation: inhibition means the share of the control response that was lost under treatment. As to `OCCc1ccc(O)cc1` [Tyrosol], the inhibition at 1000 µM in test [6] was roughly 30%.
On the same count and under the same terms, the same measure for `NCCc1ccc(O)cc1` [tyramine]: roughly 30%.
Consider `Nc1ccccc1C(=O)[O-].[Na+]` [Anthranilate], for which the “inhibition of DHS1 activity” value in [1] is “did not affect the activity”. Also, in [6], the “inhibition of DHS2 activity” value is “slight reduction”.
For `O=C(O)/C=C/c1ccc(O)c(O)c1` [caffeate], the “inhibition of DHS1^B4” value in test [7] is given as “still strongly inhibited”. The “inhibition of DHS1” value in [8] is “strongly inhibit”. Also, the “inhibition of DHS2” value in test [2] is reported as “strongly inhibit”. In addition, the “inhibition of DHS3” value in [9] was “strongly inhibit”. Besides, the “inhibition of DHS2^A4” value in test [3] is “still inhibited”.
For the compound `N[C@@H](Cc1ccc(O)cc1)C(=O)O` [Tyr, L-tyrosine], in test [3], the “inhibition of DHS2^A4 activity” value was “not inhibited”. In addition, the “inhibition of DHS2^F1 activity” value in test [4] is reported as “not inhibited”. The “inhibition of DHS2^A11 activity” value in [5] was “not inhibited”.
With `O=C(O)C1=C[C@@H](O)[C@@H](O)[C@H](O)C1` [shikimate], in test [2], the “inhibition of DHS2” value is “slightly inhibit”. For the same compound, the “inhibition of DHS2^A4” value in test [3] was “still inhibited”.
As for `C=C(O[C@@H]1C=C(C(=O)O)C=C[C@H]1O)C(=O)O` [chorismate], the “inhibition of DHS1^B4” value in test [7] is on record as “still strongly inhibited”. Besides, in test [8], the “inhibition of DHS1” value is recorded as “strongly inhibit”. Besides, the “inhibition of DHS2” value in [2] is “strongly inhibit”. The “inhibition of DHS3” value in test [9] was “strongly inhibit”. Besides, in [3], the “inhibition of DHS2^A4” value is recorded as “still inhibited”.
Take `c1ccc2[nH]ccc2c1` [indole]: the “inhibition of DHS1 activity” value in test [1] is listed as “did not affect the activity”.
By pIC50 is commonly meant the negative decadic logarithm of the IC50, by convention in mol/L. `O=C(O)Cc1cc(O)ccc1O` [HGA, homogentisate]: in test [1], the pIC50 is 3.60 to 4.12 and the “inhibition of DHS1 activity” value is “effectively inhibited”. Further, in test [6], the pIC50 was 3.60 to 4.12 and the “inhibition of DHS2 activity” value is listed as “effectively inhibited”. Moreover, the “inhibition of DHS3 WT activity” value in test [10] was “effectively inhibited”. Besides, in [10] (recombinant DHS3 WT, varied effector concentrations), the pIC50 was 3.60 to 4.12. Also, the “increase in IC50 versus corresponding WT enzymes” value in test [11] is reported as no more than 12 fold. In addition, the “change in IC50 versus corresponding WT enzyme” value in test [5] is “no significant change”.
In the case of `NCCc1c[nH]c2ccccc12` [tryptamine], the “inhibition of DHS1 activity” value in [1] is “did not affect the activity”. The “inhibition of DHS2 activity” value in test [6] is “slight reduction”.
`O=C(O)C(O)Cc1c[nH]c2ccccc12` (stereo not shown) [ILA, Indole-3-lactate]: the “inhibition of DHS1 activity” value in test [1] was “reduced the activity”. Further, the “inhibition of DHS2 activity” value in test [6] is listed as “reduced the activity”. Besides, in test [12] (setting [13]), the “effect on growth of Col-0 WT plants” value is recorded as “growth inhibition” and the “growth inhibition in sotaB4 mutant plants versus Col-0” value is “significantly weakened”.
With `O=C(O)C(=O)Cc1c[nH]c2ccccc12` [IPA, indole-3-pyruvate], in test [1], the pIC50 is 3.62 and the “inhibition of DHS1 activity” value is recorded as “inhibit”. Further, in test [6], the pIC50 is 4.24 and the “inhibition of DHS2 activity” value was “inhibit”. For the same compound, in test [12] (independent of genotypes, even at very low concentration (<10 μM)), the “effect on plant growth” value is listed as “impaired plant growth”.
Consider `O=C(O)Cc1ccc(O)cc1` [4-hydroxyphenylacetate], for which the “inhibition of DHS1 activity” value in [1] is “neither”.
Regarding `O=C(O)C(=O)Cc1ccc(O)cc1` [HPP, 4-Hydroxyphenylpyruvate], the “inhibition of DHS3 WT activity” value in [10] is on record as “effectively inhibited”. In addition, the “increase in IC50 versus corresponding WT enzymes” value in test [11] is listed as “up to 7 fold”. Besides, in test [5], the “change in IC50 versus corresponding WT enzyme” value was “no significant change”.
